Test results taken from patent US6890917B2, “Geldanamycin derivative and method of treating cancer using same” (The United States of America as represented by the …, priority 2001, dated 2005).

System: standard panel of 12 human tumor cell lines (NCI-H23, NCI-H522, MDA-MB-231, MDA-MB-435, SW-620, COLO 205, LOX IMVI, UACC-62, OVCAR-3, OVCAR-5, U251, SF295)
Assay: Hollow fiber assay (HFA) with stable endpoint MTT assay, compound given to mice carrying intraperitoneal and subcutaneous fiber implants
Format: in vivo
Parameters: Total HFA Score: scale not given here
Conditions: for Total HFA Score / IP Score / SC Score: HFA in mice; for Total HFA Score: IP + SC scores; for IP Score: intraperitoneal fiber implants; for IP Score / SC Score: 2 points per 50% or greater reduction in viable cell mass; for SC Score: subcutaneous fiber implants; for in vivo anti-cancer activity compared with Compound C (in words): intraperitoneal injection, Table 1
Protocol: Compounds A-C were tested in a hollow fiber assay for in vivo activity. Each compound was tested against a standard panel of 12 human tumor cell lines including NCI-H23, NCI-H522, MDA-MB-231, MDA-MB-435, SW-620, COLO 205, LOX IMVI, UACC-62, OVCAR-3, OVCAR-5, U251 and SF295. The cell lines were cultivated in RPMI-1640 containing 10% FBS and 2 mM glutamine. On the day preceding hollow fiber preparation, the cells were given a supplementation of fresh medium to maintain log phase growth. For fiber preparation, the cells were harvested by standard trypsinization technique and resuspended at the desired cell density. The cell suspensions were flushed into 1 mm polyvinylidene fluoride (PVDF) hollow fibers (MW exclusion of 500,000 Da) and subsequently heat-sealed at 2 cm intervals. The samples generated from these seals were placed into tissue culture medium and incubated at 37° C. in 5% CO2 for 24-48 hours prior to implantation. A total of 3 different tumor cell lines were prepared for each experiment so that each mouse received 3 intraperitoneal implants (1 of each tumor cell line) and 3 subcutaneous implants (1 of each tumor cell line). A total of 4 experiments were conducted on each mouse (3 cell lines/experiment×4 experiments=12 cell lines).
On the day of implantation, samples of each tumor cell line were quantitated for viable cell mass by a stable endpoint MTT assay so that the time 0 cell mass was known. In the MTT assay, the fibers were incubated in 6-well plates (1-6 fibers/well) with 3 mL of pre-warmed (37° C.) complete medium containing MTT (1 mg/mL) (Sigma) for 4 hours at 37° C. in 5% CO2. The MTT solution was aspirated and the fibers were washed with 2 mL of saline containing 2.5% protamine sulfate overnight at 4° C. A second wash was performed with 2 mL of saline containing 2.5% protamine sulfate, and the fibers were maintained at 4° C. for a minimum of 2 hours. The fibers were then removed from the protamine sulfate, individually wiped, placed in a 24-well plate (1 fiber/well), cut in half and dried overnight in a biosafety hood. To extract the formazan, DMSO was added (0.25 mL) to each well and the plates were rotated for 4 hours at room temperature. The extracted samples were transferred to 96-well plates and the OD was determined at 540 nm. From these spectrophotomeric measurements, the cytostatic and cytocidal capacities of the test compound were assessed.
Following implantation of the hollow fibers, mice were treated with one of the compounds, as listed in Tables 1 and 2 starting on day 3 or 4 following fiber implantation and continuing once daily for a total of 4 doses. Each compound was either assessed by intraperitoneal injection (Example 1) or by oral administration (Example 2) at 2 dose levels with 3 mice/dose/experiment. Vehicle controls consisted of 6 mice receiving the compound diluent only. The fibers were collected from the mice on the day following the fourth compound treatment and subjected to the stable endpoint MTT assay. The optical density of each sample was determined spectrophotometrically at 540 nm and the mean of each treatment group was calculated. The percent net cell growth in each treatment group was determined and compared to the percent net cell growth in the vehicle treated controls.
In the context of the following examples, compounds were selected for further testing (e.g., time/dose exposure studies, preliminary pharmacology studies, subcutaneous xenograft efficacy studies) on the basis of several hollow fiber assay criteria, including (1) a reduction in net cell growth of 50% or greater in 10 of the 48 possible test combinations; (2) a reduction in net cell growth of 50% or greater in a minimum of 4 of the 24 distant site combinations (SC score); and/or (3) cell kill of 1 or more cell lines in either implant site (reduction in the viable cell mass below the level present at the start of the experiment). […]

[1] = compound by intraperitoneal injection once daily for 4 days, 2 dose levels (A, B: 75 and 50 mg/kg/dose; C: 20 and 13.4 mg/kg/dose)
[2] = compound orally (PO) once daily for 4 days, 75 and 50 mg/kg/dose

SMILES	Total HFA Score [1]	IP Score [1]	SC Score [1]	in vivo anti-cancer activity compared with Compound C (in words) (HFA)	Total HFA Score [2]	IP Score [2]	SC Score [2]	in vivo anti-cancer activity by oral administration (in words) (HFA, oral administration, Table 2)
CO[C@H]1/C=C\C=C(/C)C(=O)NC2=CC(=O)C(NCCN(C)C)=C(C[C@@H](C)C[C@H](OC)[C@H](O)[C@@H](C)/C=C(\C)[C@@H]1OC(N)=O)C2=O [Compound A, 17-Dimethylaminoethylamino-17-demethoxygeldanamycin]	30	20	10	significantly greater in vivo anti-cancer activity				
CO[C@H]1/C=C\C=C(/C)C(=O)NC2=CC(=O)C(NCCN(C)C)=C(C[C@@H](C)C[C@H](OC)[C@H](O)[C@@H](C)/C=C(\C)[C@@H]1OC(N)=O)C2=O.Cl [Compound B, 17-Demethoxy-17-[[2-(dimethylamino)ethyl]amino]geldanamycin hydrochloride]	42	24	18	significantly greater in vivo anti-cancer activity	20	10	10	significant in vivo anti-cancer activity
CO[C@H]1/C=C\C=C(/C)C(=O)NC2=CC(=O)C(NCCCN(C)C)=C(C[C@@H](C)C[C@H](OC)[C@H](O)[C@@H](C)/C=C(\C)[C@@H]1OC(N)=O)C2=O [Compound C, 17-Dimethylaminopropylamino-17-demethoxygeldanamycin, reference compound]	16	14	2					
